What follows are compounds tested on mouse-derived macrophage-like cell line RAW264.7 (assay: Evaluation of NO production amount by Griess method). Conditions: general statement of effect; based on suppression of NO production by M1 macrophage.
Type: cell-based
Method: The mouse-derived macrophage-like cell line RAW264.7 was seeded in a 48 well plate 1×10^5 cells per well. After culture for 5 hr, Escherichia coli-derived lipopolysaccharide (LPS) was added to 100 ng/mL over 24 hr to activate RAW264.7 cells. Simultaneously with LPS, various compounds (No. 1-No. 17, LA, ALA) were added at 10 μM, and the concentration of […] (NO2^−), which is an oxide of nitric oxide (NO) produced by macrophage activation, in the culture medium was measured. The amount of NO2 in the culture medium was quantified by the Griess method and in reference to Shan Lin et al., Molecular Nutrition and Food Research 57 (2013) p 1135-1144, “Auraptene suppresses inflammatory responses in activated RAW264 macrophages by inhibiting p38 mitogen-activated protein kinase activation”, the section of Material and methods Measurements of TNF-α, MCP-1, and NO concentrations. The quantification was actually performed as follows. RAW264.7 culture medium treated with LPS and various compounds for 24 hr was recovered. 0.2% N-(1-naphthyl) ethylenediamine and 2% Sulfanilamide/10% H3PO4 were blended at 1:1 immediately before reaction to give a Griess reagent, RAW264.7 culture medium and the Griess reagent were mixed at 1:1 and reacted at room temperature for 10 min. After completion of the reaction, absorbance at 550 nm was measured. NaNO2 was used as the NO2^− standard product, and the NO2^− concentration in the culture medium was calculated. The concentration of the sample was adjusted with ethanol. Ethanol was used as a negative control, and BAY11-7082 (5 μM), which is a IκBα phosphorylation inhibitor, was used as a positive control.

Row | Compound | anti-inflammatory action
1 | CCCCC/C=C\CC(O)CCCCCCCCC(=O)O (stereo not drawn) [No. 4, 10-hydroxy-cis-12-octadecenoic acid] | have an anti-inflammatory action
2 | CCCCC/C=C\CC(=O)CCCCCCCCC(=O)O [No. 6, 10-oxo-cis-12-octadecenoic acid] | have an anti-inflammatory action
3 | CCCCCC(O)CC/C=C\CCCCCCCC(=O)O (stereo not drawn) [No. 14, 13-hydroxy-cis-9-octadecenoic acid] | have an anti-inflammatory action
4 | CCCCCC(=O)CC/C=C\CCCCCCCC(=O)O [No. 15, 13-oxo-cis-9-octadecenoic acid] | have an anti-inflammatory action

Reference: patent publication US12697318B2, “Anti-inflammatory agent containing rare fatty acid” (Noster Inc., priority 2014, dated 2026)
